According to the supplement of paper PMC10307832:

Assays:
Assay in all cases: relative viability (nuclei count vs DMSO), 5 days (fraction); higher = more cells survive
[1] = compound: CC1=CN=C(N=C1C2=CNC(=C2)C(=O)N[C@H](CO)C3=CC(=CC=C3)Cl)NC4=C(C=C(C=C4)F)Cl [VX-11e]
Procedure, shortened: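 Viability here means nuclei in treated wells divided by nuclei in vehicle wells, reported as the median across plates. Only plates with control CV below 25% and at least one doubling passed. Lung cancer cell lines in 1536-well plates were exposed to five √10-spaced library-drug doses for 5 days and counted from 4× Hoechst images in MetaXpress.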

[2] = compound: CC1=CN=C(N=C1C2=CNC(=C2)C(=O)N[C@H](CO)C3=CC(=CC=C3)Cl)NC4=C(C=C(C=C4)F)Cl [VX-11e] + CC1(C)CCC(c2ccc(Cl)cc2)=C(CN2CCN(c3ccc(C(=O)NS(=O)(=O)c4ccc(N[C@H](CCN5CCOCC5)CSc5ccccc5)c(S(=O)(=O)C(F)(F)F)c4)cc3)CC2)C1 [Navitoclax] (partner 0.5 µM)
Procedure, shortened: (§1)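 Relative viability is defined as nuclei in treated wells over nuclei in vehicle wells. Duplicate plates were run and medians reported. Lung cancer cell lines in 1536-well plates were dosed by pin tool one day after seeding, with one drug or with a fixed anchor-drug dose plus five library-drug doses (not always all listed) in √10 steps, and nuclei were counted after 5 days.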

[3] = compound: CC1=CN=C(N=C1C2=CNC(=C2)C(=O)N[C@H](CO)C3=CC(=CC=C3)Cl)NC4=C(C=C(C=C4)F)Cl [VX-11e] + Cc1cc(Nc2cc(N3CCN(C)CC3)nc(Sc3ccc(NC(=O)C4CC4)cc3)n2)n[nH]1 [Tozasertib] (partner 0.1 µM)
Procedure, shortened: as §1

[4] = compound: CC1=CN=C(N=C1C2=CNC(=C2)C(=O)N[C@H](CO)C3=CC(=CC=C3)Cl)NC4=C(C=C(C=C4)F)Cl [VX-11e] + N=C(N)NC(=N)NCCc1ccccc1 [Phenformin] (partner 250 µM)
Procedure, shortened: as §1

Cell Line | relative viability ([1]; 0.04 µM) | relative viability ([1]; 0.1265 µM) | relative viability ([1]; 0.4 µM) | relative viability ([1]; 1.265 µM) | relative viability ([1]; 4 µM) | relative viability ([2]; first compound 0.04 µM) | relative viability ([2]; first compound 0.1265 µM) | relative viability ([2]; first compound 0.4 µM) | relative viability ([2]; first compound 1.265 µM) | relative viability ([2]; first compound 4 µM) | relative viability ([3]; first compound 0.04 µM) | relative viability ([3]; first compound 0.1265 µM) | relative viability ([3]; first compound 1.265 µM) | relative viability ([3]; first compound 4 µM) | relative viability ([4]; first compound 0.04 µM) | relative viability ([4]; first compound 0.1265 µM) | relative viability ([4]; first compound 1.265 µM) | relative viability ([4]; first compound 4 µM) | relative viability ([3]; first compound 0.4 µM) | relative viability ([4]; first compound 0.4 µM)
NCI-H2228 | 1.13 | 0.954 | 0.407 | 0.776 | 0.428 | 0.902 | 0.73 | 1.08 | 0.477 | 0.162 | 0.248 | 0.202 | 0.149 | 0.115 | 0.352 | 0.376 | 0.151 | 0.135 | – | –
NCI-H2347 | 1.01 | 1.05 | 0.853 | 0.752 | 0.469 | 0.932 | 0.818 | 0.683 | 0.352 | 0.213 | 0.646 | 0.599 | 0.449 | 0.276 | 0.462 | 0.488 | 0.43 | 0.211 | 0.508 | 0.206
NCI-H2405 | 1.01 | 0.934 | 0.901 | 0.943 | 0.462 | 1.03 | 0.921 | – | 0.592 | 0.126 | 0.804 | 0.757 | 0.779 | 0.256 | 0.393 | 0.403 | 0.321 | 0.169 | 0.768 | 0.233
NCI-H3122 | 1.02 | 0.959 | 0.696 | 0.888 | 0.564 | 0.969 | 1.02 | 0.989 | 0.995 | 0.597 | 0.452 | 0.413 | 0.23 | 0.173 | 0.408 | 0.358 | 0.335 | 0.254 | – | –
PC-3 [JPC-3] | 0.997 | 1.02 | 0.998 | 0.981 | 0.832 | 0.786 | 0.803 | 0.682 | 0.831 | 0.743 | 0.892 | 0.863 | 0.926 | 0.729 | 0.436 | 0.476 | 0.489 | 0.414 | 0.829 | 0.486
PC-14 | 1.05 | 0.954 | 0.659 | 0.799 | 0.491 | 1.05 | 1.04 | 1.09 | 0.978 | 0.727 | 0.66 | 0.469 | 0.331 | 0.278 | 0.539 | 0.552 | 0.472 | 0.239 | 0.395 | 0.196
RERF-LC-KJ | 1.05 | 0.895 | 0.99 | 0.989 | 0.789 | 0.849 | 1.1 | 0.977 | 0.946 | 0.619 | 0.529 | 0.452 | 0.457 | 0.29 | 0.403 | 0.427 | 0.372 | 0.315 | 0.564 | 0.408
SK-LU-1 | 1.09 | 0.928 | 0.831 | 0.911 | 0.346 | 1.06 | 0.817 | 0.508 | 0.634 | 0.168 | 0.348 | 0.298 | 0.338 | 0.194 | 0.474 | 0.492 | 0.356 | 0.156 | – | –
SK-MES-1 | 1.06 | 0.921 | 0.886 | 0.748 | 0.35 | 1.21 | 1.15 | 1.24 | 1.1 | 0.408 | 0.884 | 0.873 | 0.908 | 0.376 | 0.693 | 0.64 | 0.618 | 0.368 | 0.844 | 0.694
SW 1573 | 0.989 | 0.993 | 0.704 | 0.778 | 0.487 | 1.12 | 0.959 | 0.945 | 0.672 | 0.553 | 0.237 | 0.21 | 0.154 | 0.11 | 0.39 | 0.346 | 0.287 | 0.154 | 0.224 | 0.289
UMC-11 | 0.757 | 0.909 | 0.962 | 0.791 | 0.889 | 0.288 | 0.263 | 0.295 | 0.324 | 0.327 | 0.185 | 0.201 | 0.182 | 0.19 | 0.291 | 0.309 | 0.301 | 0.283 | 0.206 | 0.28
